The test system of experiment [1] is mouse B2M gene. The experiment in a line: In vivo editing in mouse liver, LNP with Cas9 mRNA and sgRNA G650, NGS. As to conditions: Table 3; guide G650; CD-1 female mice, 0.1 mpk i.v., liver at 6 or 7 days; Exp. 2-7. In a few lines:
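Female CD-1 mice given LNPs (amine lipid/DSPC/cholesterol/PEG-2k-DMG; N/P ~6; sgRNA G650:Cas9 mRNA 1:1 w/w) i.v. at 0.1 mpk unless noted. Liver collected day 6 or 7; B2M editing = indel reads over total reads by amplicon NGS.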

The subject of experiment [2] is mouse TTR gene. In words: In vivo editing in mouse liver, LNP with Cas9 mRNA and sgRNA G282, NGS. As to conditions: for Mean % Indel: Table 5. On the procedure:
LNPs were prepared using various amine lipids in a 4-component lipid system consisting of an ionizable lipid (e.g. an amine lipid), DSPC, cholesterol and PEG-2k-DMG. In assays for percent liver editing in mice, Cas9 mRNA and chemically modified sgRNA targeting a mouse sequence were formulated in LNPs, at either a 1:1 w/w ratio or a 1:2 w/w ratio.
The lipid components were dissolved in 100% ethanol with the lipid component molar ratios described below. The chemically modified sgRNA and Cas9 mRNA were combined and dissolved in 25 mM citrate, 100 mM NaCl, pH 5.0, resulting in a concentration of total RNA cargo of approximately 0.45 mg/mL. The LNPs were formulated with an N/P ratio of about 6, with the ratio of chemically modified sgRNA: Cas9 mRNA at either a 1:1 or 1:2 w/w ratio as described below.
CD-1 female mice, ranging from 6-10 weeks of age were used in each study. Animals were weighed and grouped according to body weight for preparing dosing solutions based on group average weight. LNPs were dosed via the lateral tail vein in a volume of 0.2 mL per animal (approximately 10 mL per kilogram body weight). The animals were periodically observed for adverse effects for at least 24 hours post dose.
For studies measuring in vivo editing in liver, CD-1 female mice were dosed at 0.1 mpk unless otherwise noted. Animals were euthanized at 6 or 7 days by exsanguinationvia cardiac puncture under isoflourane anesthesia. Liver tissue was collected from each animal for DNA extraction and analysis. Blood was collected into serum separator tubes or into tubes containing buffered sodium citrate for plasma as described herein. Cohorts of mice were measured for editing by Next-Generation Sequencing (NGS).
(§1) In brief, to quantitatively determine the efficiency of editing at the target location in the genome, genomic DNA was isolated and deep sequencing was utilized to identify the presence of insertions and deletions introduced by gene editing.
(§2) PCR primers were designed around the target site (e.g., B2M), and the genomic area of interest was amplified. Additional PCR was performed according to the manufacturer's protocols (Illumina) to add the necessary chemistry for sequencing. The amplicons were sequenced on an Illumina MiSeq instrument. The reads were aligned to the relevant reference genome (e.g., GRCm38) after eliminating those having low quality scores. The resulting files containing the reads were mapped to the reference genome (BAM files), where reads that overlapped the target region of interest were selected and the number of wild type reads versus the number of reads which contain an insertion, substitution, or deletion was calculated.
(§3) The editing percentage (e.g., the “editing efficiency” or “percent editing”) is defined as the total number of sequence reads with insertions or deletions over the total number of sequence reads, including wild type.
We assessed in vivo editing efficiency for materials delivered with formulations including various amine lipid compounds. Editing was measured using either G282 (SEQ ID No: 1) which targets the mouse TTR gene or G650 (SEQ ID No. 2) which targets the mouse B2M gene. Lipids described above were assessed for efficacy through in vivo editing experiments. LNPs were formulated at a 1:1 w/w ratio of sgRNA to Cas9 mRNA, and at an N/P ratio of about 6. Molar concentrations of lipids in the lipid component of the LNPs are expressed as mol % amine lipid/DSPC/cholesterol/PEG-2k-DMG, e.g. 50/10/38.5/1.5. The final LNPs were characterized to determine the encapsulation efficiency, polydispersity index, and average particle size according to the analytical methods provided above. Analysis of average particle size, polydispersity (PDI), total RNA content and encapsulation efficiency of RNA are shown in Table 2.
To assess whether the editing was dose responsive, experiments were performed in vivo at various LNP dose levels. […]

For experiment [3], the system named is rat TTR. The experiment in a line: In vivo editing in rat liver, LNP with Cas9 mRNA and sgRNA G534, NGS. Particulars: Table 11, Sprague Dawley female rats i.v., liver 6-7 days post dose. On the procedure:
as §1, §2, §3
To assess lipid efficacy, dose response experiments were performed in vivo. Cas9 mRNA of Example 115 was formulated as LNPs with a gRNA targeting TTR (G00534; SEQ ID NO: 5). These LNPs were formulated, prepared and analyzed as described in Example 115 using a 1:2 w/w ratio of a sgRNA and Cas9 mRNA. Composition analysis for these LNPs are described in Table 10.
For efficacy, Sprague Dawley female rats were dosed i.v. at 0.1 mpk or 0.03 mpk. 6-7 days post dose, rats were euthanized by CO2 asphyxiation. Blood was collected into serum separator tubes. Liver biopsy processed for gDNA and assessed for editing by NGS methods described in Example 115. Results are shown in Table 11 and FIGS. 12A and 12B. For tolerability, Sprague Dawley female rats were dosed at 6 mpk and 24 hours post dose the animals were euthanized by CO2 asphyxiation. Blood was collected into serum separator tubes and sent to an external CRO for quantitation of liver enzymes via a liver enzyme panel.

Experiment [4] deals with rat TTR. The experiment in a line: Serum TTR levels in rats after LNP delivery. As to conditions: Table 11, G534, Sprague Dawley female rats i.v. The experiment is classed as in vivo.
Experiment [5] relates to TTR in HUH7 cells. The experiment in a line: In vitro editing in HUH7 cells, LNP with Cas9 mRNA and sgRNA G000502, NGS. Particulars: Table 14; 2000 ng RNA per well, cells harvested 6 hours post-transfection, biological duplicate, G000502 target locus. The experiment is classed as cell-based, human. On the procedure:
A series of compounds based on Compound 46 that vary by the inclusion of a C4-12 alkyl at the R^3 position of Formula (IA) (as illustrated in FIG. 13A) were tested for in vitro editing. The human hepatocellular carcinoma cell line […] (Japanese Collection of Research Bioresources Cell Bank, Cat. JCRB0403) was cultured in DMEM media supplemented with 10% fetal bovine serum and 1% Penicillin-Streptomycin. Cells were plated at a density of 20,000 cells/well in a 96-well plate 24 hours prior to transfection (˜80% confluent at time of transfection). The LNPs were formulated at a 1:2 w/w ratio of sgRNA and Cas9 mRNA using the cross flow procedure with lipid molar compositions as described in Table 13 at an N/P ratio of 6.0. LNP compositions were analyzed for average particle size, polydispersity (pdi), total RNA content and encapsulation efficiency of RNA as described in Example 115. Analysis of average particle size, polydispersity (PDI), total RNA content and encapsulation efficiency of RNA are shown in Table 13. LNPs were diluted into media, incubated for 5 minutes at 37 C and pipetted onto cells at a dose of 2000 ng RNA per well. Each condition was assayed in biological duplicate. Cells were harvested post-transfection at 6 hours. Genomic DNA was extracted using 50 μL/well BuccalAmp DNA Extraction solution (Epicentre, Cat. QE09050) according to manufacturer's protocol. All DNA samples were subjected to PCR and subsequent NGS analysis for editing at the G000502 target locus, as described above. As shown in Table 14 and FIG. 13B, all compounds tested were efficacious for in vitro editing.

Where [6] appears, read: Table 3, guide G282, CD-1 female mice, 0.1 mpk i.v., liver at 6 or 7 days, Exp. 1, 8, 9, 10.
The mark [7] stands for this setting: G00282, CD-1 female mice i.v., dose 0.1 mpk, liver.
The mark [8] stands for this setting: G00282, CD-1 female mice i.v., dose 0.3 mpk, liver.

Consider ten molecules from patent US12077483B2, “Modified amine lipids” (Intellia Therapeutics, Inc., priority 2018, dated 2024).

The structures appear in SMILES notation.

On to `CCCCC/C=C\C/C=C\CCCCCCCC(=O)OCC(COC(=O)CCCCCCC/C=C\C/C=C\CCCCC)OC(=O)CCC(CCCCCCCCCCCC)OC(=O)NCC1CCCN1C` (centres unmarked) [Compound 9, 2-((4-((((1-methylpyrrolidin-2-yl)methyl)carbamoyl)oxy)hexadecanoyl)oxy) propane-1,3-diyl (9Z,9′Z,12Z,12′Z)-bis(octadeca-9,12-dienoate)], for which the “Editing Mean % Indel” value in experiment [1] is on record as 20.3%; in experiment [2] (setting [6]), 44.1%. Also, the “Mean % Indel” value came out at 50.6% in experiment [2] (setting [7]) and 64.5% in experiment [2] (setting [8]).

Turning to `CCCCC/C=C\C/C=C\CCCCCCCC(=O)OCC(COC(=O)CCCCCCC/C=C\C/C=C\CCCCC)OC(=O)CCC(CCCCCC)OC(=O)NCCN(C)CC` (centres unmarked) [Compound 40, 2-((4-(((2-(ethyl(methyl)amino)ethyl)carbamoyl)oxy)decanoyl)oxy)propane-1,3-diyl (9Z,9′Z,12Z,12′Z)-bis(octadeca-9,12-dienoate)], in experiment [2] (setting [6]), the “Editing Mean % Indel” value was determined as 44.7%.

As to `CCCCC/C=C\C/C=C\CCCCCCCC(=O)OCC(COC(=O)CCCCCCC/C=C\C/C=C\CCCCC)OC(=O)CCC(CCCCCC)OC(=O)OCCCN1CCCC1` (centres unmarked) [Compound 45, 2-((4-(((3-(pyrrolidin-1-yl)propoxy)carbonyl)oxy)decanoyl)oxy)propane-1,3-diyl (9Z,9′Z,12Z,12′Z)-bis(octadeca-9,12-dienoate)], the figures for the “Editing % Editing” value in experiment [3] (dose 0.03 mpk) and in experiment [3] (dose 0.1 mpk) were 10.76% and 48.16%, respectively. Moreover, the “Serum TTR” value in experiment [4] (dose 0.03 mpk) was 910.4 µg/mL; in experiment [4] (dose 0.1 mpk) it was 270.7 µg/mL. The “Serum TTR % TSS” value in experiment [4] (dose 0.03 mpk) is listed as 110% TSS; in experiment [4] (dose 0.1 mpk) it was 32% TSS.

Take `CCCCC/C=C\C/C=C\CCCCCCCC(=O)OCC(COC(=O)CCCCCCC/C=C\C/C=C\CCCCC)OC(=O)CCC(CCCCCCCCCC)OC(=O)NCCN(C)CC` (centres unmarked) [Compound 39, 2-((4-(((2-(ethyl(methyl)amino)ethyl)carbamoyl)oxy)tetradecanoyl)oxy)propane-1,3-diyl (9Z,9′Z,12Z,12′Z)-bis(octadeca-9,12-dienoate)]: in experiment [2] (setting [6]), the “Editing Mean % Indel” value is reported as 36.5%.

Consider `CCCCC/C=C\C/C=C\CCCCCCCC(=O)OCC(COC(=O)CCCCCCC/C=C\C/C=C\CCCCC)OC(=O)CCC(CCCCCCCC)OC(=O)NCC1CCCN1C` (centres unmarked) [Compound 35, 2-((4-((((1-methylpyrrolidin-2-yl)methyl)carbamoyl)oxy)dodecanoyl)oxy) propane-1,3-diyl (9Z,9′Z,12Z,12′Z)-bis(octadeca-9,12-dienoate)], for which the “Editing Mean % Indel” value in experiment [1] is 35.5%.

In the case of `CCCCC/C=C\C/C=C\CCCCCCCC(=O)OCC(COC(=O)CCCCCCC/C=C\C/C=C\CCCCC)OC(=O)CCC(CCCCCCCC)OC(=O)OCCCN1CCCC1` (centres unmarked) [Compound 36, 2-((4-(((3-(pyrrolidin-1-yl)propoxy)carbonyl)oxy)dodecanoyl)oxy)propane-1,3-diyl (9Z,9′Z,12Z,12′Z)-bis(octadeca-9,12-dienoate)], the “Editing Mean % Indel” value in experiment [1] was 30.0%.

In turn, `CCCCC/C=C\C/C=C\CCCCCCCC(=O)OCC(COC(=O)CCCCCCC/C=C\C/C=C\CCCCC)OC(=O)CCC(CCCCC)OC(=O)NCCN1CCCC1` (centres unmarked) [Compound 72, 2-((4-(((2-(pyrrolidin-1l-yl)ethyl)carbamoyl)oxy)nonanoyl)oxy)propane-1,3-diyl (9Z,9′Z,12Z,12′Z)-bis(octadeca-9,12-dienoate)] showed an Editing in experiment [5] of 65.8%.

For the molecule `CCCCC/C=C\C/C=C\CCCCCCCC(=O)OCC(COC(=O)CCCCCCC/C=C\C/C=C\CCCCC)OC(=O)CCC(CCCCCCCCCCCC)OC(=O)OCCCN(C)C` (centres unmarked) [Compound 1, 2-((4-(((3-(dimethylamino)propoxy)carbonyl)oxy)hexadecanoyl)oxy)propane-1,3-diyl (9Z,9′Z,12Z,12′Z)-bis(octadeca-9,12-dienoate)], the “Editing Mean % Indel” value in experiment [2] (setting [6]) is listed as 13.1%.

Consider `CCCCC/C=C\C/C=C\CCCCCCCC(=O)OCC(COC(=O)CCCCCCC/C=C\C/C=C\CCCCC)OC(=O)CCC(CCCCCCCCCCCC)OC(=O)OCCCN1CCCC1` (centres unmarked) [Compound 5, 2-((4-(((3-(pyrrolidin-1-yl)propoxy)carbonyl)oxy)hexadecanoyl)oxy)propane-1,3-diyl (9Z,9′Z,12Z,12′Z)-bis(octadeca-9,12-dienoate)], for which the “Editing Mean % Indel” value in experiment [1] is 17.5%; in experiment [2] (Table 7, G00282, CD-1 female mice i.v., dose 0.1 mpk, liver), 26.1%; in experiment [2] (Table 7, G00282, CD-1 female mice i.v., dose 0.3 mpk, liver), 52.5%. Further, the “efficacy for in vivo editing (in words)” value in experiment [2] (mouse liver, Examples 116 and 118) was “efficacious”.

With `CCCCC/C=C\C/C=C\CCCCCCCC(=O)OCC(COC(=O)CCCCCCC/C=C\C/C=C\CCCCC)OC(=O)CCC(CCCCCCCCCCCC)OC(=O)NCCN(C)CC` (centres unmarked) [Compound 7, 2-((4-(((2-(ethyl(methyl)amino)ethyl)carbamoyl)oxy)hexadecanoyl)oxy)propane-1,3-diyl (9Z,9′Z,12Z,12′Z)-bis(octadeca-9,12-dienoate)], the “Editing Mean % Indel” value in experiment [1] is recorded as 22.6%. The “Mean % Indel” value in experiment [2] (setting [7]) amounted to 49.1%; in experiment [2] (setting [8]), 69.4%.
